Where two headings read alike, the source gives them in different places.
Assays:
F508del/F508del CFTR = target: T1, F508del/F508del CFTR (Homo sapiens, UniProt P13569, DEL508-508); experiment: Trans-Epithelial Current Clamp (TECC) assay using primary human bronchial epithelial cells; format: cell-based; conditions: for Emax (% Dual): maximum percent activity relative to positive control (co-corrector 0.15 μM + potentiator 0.45 μM = 100%), primary hBE cells F508del/F508del; for EC50: primary hBE cells homozygous F508del/F508del, test C2 corrector with co-corrector and potentiator, 18-24 hours at 37° C., equivalent CFTR current (IEQ)/AUC
T1 construct: cells isolated from CF patients with the homozygous mutation; endogenous in cells; host or cells: primary human bronchial epithelial (hBE) cells from CF patients homozygous for F508del
T1 sequence (P13569 with tags, fused parts or gaps DEL508-508): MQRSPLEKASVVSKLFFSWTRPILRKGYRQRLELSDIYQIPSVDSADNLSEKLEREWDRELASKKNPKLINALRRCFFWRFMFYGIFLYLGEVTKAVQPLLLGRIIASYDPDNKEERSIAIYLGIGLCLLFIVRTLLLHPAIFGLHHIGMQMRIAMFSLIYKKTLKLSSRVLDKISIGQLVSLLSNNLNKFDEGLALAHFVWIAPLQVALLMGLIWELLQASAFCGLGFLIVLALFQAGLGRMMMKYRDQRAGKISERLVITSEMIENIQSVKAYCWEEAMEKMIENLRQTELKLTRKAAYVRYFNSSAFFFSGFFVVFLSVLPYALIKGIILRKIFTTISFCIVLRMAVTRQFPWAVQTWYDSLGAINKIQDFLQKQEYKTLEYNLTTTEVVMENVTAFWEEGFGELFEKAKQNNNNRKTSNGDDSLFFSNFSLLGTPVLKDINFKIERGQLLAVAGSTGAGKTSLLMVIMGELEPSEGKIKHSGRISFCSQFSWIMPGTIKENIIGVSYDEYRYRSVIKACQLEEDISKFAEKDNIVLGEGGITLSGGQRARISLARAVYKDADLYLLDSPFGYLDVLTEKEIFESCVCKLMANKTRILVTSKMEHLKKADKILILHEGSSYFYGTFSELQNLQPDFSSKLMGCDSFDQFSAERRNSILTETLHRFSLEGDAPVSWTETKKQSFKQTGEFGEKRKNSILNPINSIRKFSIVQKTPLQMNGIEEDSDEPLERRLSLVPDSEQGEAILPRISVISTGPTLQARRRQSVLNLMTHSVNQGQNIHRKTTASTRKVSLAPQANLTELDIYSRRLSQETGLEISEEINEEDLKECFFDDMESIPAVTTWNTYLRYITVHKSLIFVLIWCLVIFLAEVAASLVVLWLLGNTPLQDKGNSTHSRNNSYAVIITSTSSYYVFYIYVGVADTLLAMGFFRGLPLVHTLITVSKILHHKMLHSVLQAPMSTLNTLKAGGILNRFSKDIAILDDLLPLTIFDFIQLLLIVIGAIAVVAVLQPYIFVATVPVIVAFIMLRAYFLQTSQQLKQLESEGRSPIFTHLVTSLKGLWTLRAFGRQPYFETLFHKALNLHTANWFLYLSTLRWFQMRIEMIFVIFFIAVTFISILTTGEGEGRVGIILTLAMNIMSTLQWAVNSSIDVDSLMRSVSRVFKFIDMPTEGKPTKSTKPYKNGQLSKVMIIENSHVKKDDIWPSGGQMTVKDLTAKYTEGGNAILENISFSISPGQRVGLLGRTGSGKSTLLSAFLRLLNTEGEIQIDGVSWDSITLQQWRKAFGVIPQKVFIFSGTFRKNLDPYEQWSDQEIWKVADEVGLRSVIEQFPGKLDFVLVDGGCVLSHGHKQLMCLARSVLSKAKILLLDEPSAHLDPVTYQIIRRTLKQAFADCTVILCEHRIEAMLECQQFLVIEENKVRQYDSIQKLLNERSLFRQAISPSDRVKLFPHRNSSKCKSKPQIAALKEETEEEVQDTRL
Outline: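 F508del/F508del primary hBE cells grown 35 days at air-liquid interface were treated basolaterally with C2 correctors plus fixed co-corrector and potentiator for 18-24 h at 37° C. TECC-24 current clamp at 36.5° C in HEPES-buffered F-12 Coon's, pH 7.4; equivalent current IEQ=VT/RT, plus AUC between forskolin peak and bumetanide.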

F508delCFTR = target: T2, F508delCFTR (Homo sapiens, UniProt P13569, DEL508-508); experiment: Cell Surface Expression-Horse Radish Peroxidase (CSE-HRP) assay in CFBE41o-F508delCFTR-HRP cells; format: cell-based; conditions: for EC50: CFBE41o-F508delCFTR-HRP cells, 18-24 hours at 33° C., luminescence; for Maximum % activity (without co-corrector) / Maximum % activity (with co-corrector): normalized to on-plate positive control corrector (2 μM)
T2 construct: expressed in transfected cells; host or cells: CFBE41o- human lung-derived epithelial cell line, doxycycline-inducible expression
T2 sequence (P13569 with tags, fused parts or gaps DEL508-508): as above
Outline: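 CFBE41o- cells expressing F508delCFTR with HRP in the fourth exofacial loop were doxycycline-induced (0.5 μg/mL) for 68–72 h, then exposed to correctors for 18–24 h at 33 °C, with or without 2 μM co-corrector. Surface HRP was read by luminol luminescence, and % activity was normalized to the on-plate positive control; EC50 came from a variable-slope sigmoidal fit (8 points, 3-fold dilution, 20 or 30 μM top).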

[1] = with co-corrector (2 μM), read-out: EC50 (with co-corrector)
[2] = without co-corrector, read-out: EC50 (without co-corrector)

| SMILES | Emax (% Dual) (F508del/F508del CFTR) | EC50 (F508del/F508del CFTR) [nM] | EC50 (F508delCFTR; [1]) [nM] | EC50 (F508delCFTR; [2]) [nM] | Maximum % activity (without co-corrector) (F508delCFTR; without co-corrector) [%] | Maximum % activity (with co-corrector) (F508delCFTR; with co-corrector (2 μM)) [%] |
| --- | --- | --- | --- | --- | --- | --- |
| COc1ccc(C)cc1[C@@]1(C(=O)NS(=O)(=O)c2cccc3nc(C)ccc23)C[C@H]1c1cccc(F)c1 (racemic) [Example 8, rac-(1r,2s)-2-(3-fluorophenyl)-1-(2-methoxy-5-methylphenyl)-N-(2-methylquinoline-5-sulfonyl)cyclopropane-1-carboxamide] | 429 | 1.4 | 504 | 844 |  |  |
| COc1ccc(C)cc1[C@]1(C(=O)NS(=O)(=O)c2cccc3nc(C)ccc23)C[C@@H]1c1ccc(C)nc1OC (single isomer, unassigned) [Example 86] | 176 | 24.1 | 1440 | 2210 |  |  |
| COc1ccc(C)cc1[C@@]1(C(=O)NS(=O)(=O)c2cccc3nc(C)ccc23)C[C@H]1c1cnc(C(C)C)cn1 (racemic) [Example 61, rac-(1r,2r)-1-(2-methoxy-5-methylphenyl)-N-(2-methylquinoline-5-sulfonyl)-2-[5-(propan-2-yl)pyrazin-2-yl]cyclopropane-1-carboxamide] | 281 | 74.5 | 1110 | 2440 | 700 |  |
| COc1ccc(C)cc1[C@]1(C(=O)NS(=O)(=O)c2cccc3nc(C)ccc23)C[C@@H]1c1cccc(C)n1 [Example 96, (1S,2S)-1-(2-methoxy-5-methylphenyl)-2-(6-methylpyridin-2-yl)-N-(2-methylquinoline-5-sulfonyl)cyclopropane-1-carboxamide] | 256 | 7.8 | 990 | 1980 |  |  |
| COc1ccc(C)cc1[C@]1(C(=O)NS(=O)(=O)c2cccc3nc(C)ccc23)C[C@@H]1c1ccccc1C [Example 34, (1S,2R)-1-(2-methoxy-5-methylphenyl)-2-(2-methylphenyl)-N-(2-methylquinoline-5-sulfonyl)cyclopropane-1-carboxamide] | 459 | 2.9 | 385 | 783 |  |  |
| COc1cncc([C@H]2C[C@@]2(C(=O)NS(=O)(=O)c2cccc3nc(C)ccc23)c2cc(C)ccc2OC)c1 (single isomer, unassigned) [Example 52] | 283 | 26.6 | 2140 | 3320 | 608 |  |
| COc1ccc(C)cc1[C@@]1(C(=O)NS(=O)(=O)c2cccc3nc(C)ccc23)C[C@H]1c1cncc(C)n1 (single isomer, unassigned) [Example 45] | 179 | > 300 | 4620 | 6150 | 128 | 427 |
| COc1ccc(C)cc1[C@@]1(C(=O)NS(=O)(=O)c2cccc3nc(C)ccc23)C[C@H]1c1ccccc1F (single isomer, unassigned) [Example 26] | 293 | 2.8 | 337 | 368 | 515 |  |
| COc1cncc([C@@H]2C[C@]2(C(=O)NS(=O)(=O)c2cccc3nc(C)ccc23)c2cc(C)ccc2OC)n1 (single isomer, unassigned) [Example 74] | 222 | 222 | 743 | 1290 | 188 | 545 |
| COc1ccc(C)cc1[C@@]1(C(=O)NS(=O)(=O)c2cccc3nc(C)ccc23)C[C@H]1c1ccc(C)nc1OC (single isomer, unassigned) [Example 85] | 206 | 24.7 | 810 | 1010 | 786 |  |
| COc1ccc([C@@H]2C[C@]2(C(=O)NS(=O)(=O)c2cccc3nc(C)ccc23)c2cc(C)ccc2OC)c(OC)n1 (racemic) [Example 79, rac-(1r,2s)-2-(2,6-dimethoxypyridin-3-yl)-1-(2-methoxy-5-methylphenyl)-N-(2-methylquinoline-5-sulfonyl)cyclopropane-1-carboxamide] | 205 | 21.6 | 171 | 465 | 388 | 860 |

Reference: patent US20240043386A1, “Modulators of the Cystic Fibrosis Transmembrane Conductance Regulator Protein and Methods of Use” (AbbVie Global Enterprises Ltd., priority 2021, published 2024)
